From US20030153623A1, “Solid preparation containing sparingly soluble NSAIDs” (Yamanouchi Pharmaceutical Co., Ltd., priority 1998, published 2003)

Experiments:
Type in all cases: physicochemical
[1] = Dissolution test, puddle method, first solution pH 1.2, various chemicals (Test Example 5); details: raw material of the chemical; dissolved for 5 minutes; first solution (pH 1.2) 500 ml; 50 rpm; a dose of each chemical
Procedure: Samples 8-1 and 8-9, and raw materials of various chemicals as the control, were examined by the puddle method in an dissolution test according to the Japanese Pharmacopoeia, and the amount of ibuprofen (μg/ml) dissolved for 5 minutes in the test was determined. The test solution used was the first solution (pH 1.2) in a disintegration test in the Japanese Pharmacopoeia, the amount of the dissolution medium was 500 ml, and the number of puddle revolutions was 50 rpm. Each sample contains a dose of each chemical.

[2] = Dissolution test, puddle method, first solution pH 1.2 (Test Example 4)
Procedure: Samples 7-1 and 7-9, and the raw ibuprofen powder as the control, were examined by the puddle method in an dissolution test according to the Japanese Pharmacopoeia, and the amount of ibuprofen (μg/ml) dissolved for 5 minutes in the test was determined. The test solution used was a first solution (pH 1.2) in a disintegration test in the Japanese Pharmacopoeia, the amount of the dissolutuion medium was 500 ml, and the number of puddle revolutions was 50 rpm. The content of ibuprofen in every sample was 150 mg.

[3] = Dissolution test, puddle method, Japanese Pharmacopoeia, water (Test Example 1); details: ibuprofen dissolved for 5 minutes; water 500 ml; 100 rpm; ibuprofen content 150 mg
Procedure: Each sample was tested by the puddle method in an dissolution test according to the Japanese Pharmacopoeia, and the amount of ibuprofen (μg/ml) dissolved for 5 minutes in the test was determined. Water was used as the test solution, the amount of the dissolution medium was 500 ml, and the number of puddle revolutions was 100 rpm. The raw ibuprofen material, Samples 5-1 to 5-7, and Sample 6 were examined respectively in the test. The content of ibuprofen in every sample was 150 mg.

SMILES	Dissolved amount, Control [1] [µg/mL]	Solubility in first solution (pH 1.2), in words ([2]; first solution (pH 1.2) of the disintegration test)	Dissolved amount ([2]; ibuprofen dissolved for 5 minutes, first solution (pH 1.2) 500 ml, 50 rpm, ibuprofen content 150 mg) [µg/mL]	Dissolved amount [3] [µg/mL]
COc1ccc2c(c1)c(CC(=O)O)c(C)n2C(=O)c1ccc(Cl)cc1 [Indomethacin]	0.09			
CC(C)Cc1ccc(C(C)C(=O)O)cc1 (stereo not shown) [Ibuprofen, ibuprofen]	0.00	not dissolved	0.00	5.7
CC(C(=O)O)c1ccc(-c2ccccc2)c(F)c1 (stereo not shown) [Flurbiprofen]	0.22			

The next lines start with the values.

Dissolved amount, Control [1] [µg/mL]	Solubility in first solution (pH 1.2), in words ([2]; first solution (pH 1.2) of the disintegration test)	Dissolved amount ([2]; ibuprofen dissolved for 5 minutes, first solution (pH 1.2) 500 ml, 50 rpm, ibuprofen content 150 mg) [µg/mL]	Dissolved amount [3] [µg/mL]	SMILES
11.47				CC(C(=O)O)c1cccc(Oc2ccccc2)c1 (stereo not shown) [Phenoprofen]
101.73				CC(C(=O)O)c1ccc(CC2CCCC2=O)cc1 (stereo not shown) [Loxoprofen]
1.57				CC(C(=O)O)c1cccc(C(=O)c2ccccc2)c1 (stereo not shown) [Ketoprofen]
17.81				CC(C(=O)O)c1ccc2c(c1)Cc1cccnc1O2 (stereo not shown) [Pranoprofen]
